# Measurements as given in patent publication US20180332790A1 (priority 2015, published 2018).
# “And” between values parts separate entries of the source, which are not always exact repeats. Equal entries are not always repeated. “Also recorded” adds a separate entry of the source.
# Key:
# maize [1] = details: in vivo
# maize [2] = details: in vivo; remark: listed apart in the source
compound,measurement,setting,value
"CCCCC/C=C\C/C=C\CCCCCCCC(=O)O [LLA, linoleic acid]",de novo haploid induction (in words),maize [1],triggered de novo haploid induction
same,decrease in embryo abortion frequency compared to control buffer,maize [2],2.9%
same,effect on embryo abortion and kernel formation in haploid inducer crosses (in words),maize [2],reduces the rate of embryo abortion and increases the rate of kernel formation; also recorded: increase the rate of viable kernel formation by reducing fertilization failure and embryo abortion
same,effect on haploid induction rate / number of haploids in haploid inducer crosses (in words),maize [2],boosted the haploid induction rate; also recorded: increase the number of haploids formed and/or the rate of haploid formation
same,increase in haploid induction rate compared to control buffer,maize [2],1.5%
same,increase in haploids recovered per ear compared to control buffer,maize [2],7.6 haploids per ear
same,increase in number of kernels per ear compared to control buffer,maize [2],41 per ear
"CCCCCCCC/C=C\CCCCCCCC(=O)OCC [OAEE, oleic acid ethyl ester]",de novo haploid induction (in words),maize [1],triggered de novo haploid induction
CCCCCCCC/C=C\CCCCCCCC(=O)O[C@H](COC(=O)CCCCCCCCCCCCCCCCC)COP(=O)(O)OCCN [1-stearyl-2-oleoyl-sn-phosphatidylethanolamine],de novo haploid induction (in words),maize [1],haploid inducing compound
"CCCCC/C=C\C/C=C\CCCCCCCC(=O)OCC [LLAEE, linoleic acid ethyl ester]",AVERAGE/EAR HIR,maize [2],13.0% and 15.4%
same,AVERAGE/EAR haploids,maize [2],23.1 and 27.9
same,AVERAGE/EAR k. a. rate,maize [2],29.9% and 33.0%
same,"AVERAGE/EAR k. a. rate, vs control",maize [2],−3.7% and −2.9%
same,AVERAGE/EAR kernels,maize [2],194.1 and 194.6
same,"AVERAGE/EAR kernels, vs control",maize [2],+43.3
same,decrease in embryo abortion frequency compared to control buffer,maize [2],3.7%
same,effect on embryo abortion and kernel formation in haploid inducer crosses (in words),maize [2],reduces the rate of embryo abortion and increases the rate of kernel formation; also recorded: increase the rate of viable kernel formation by reducing fertilization failure and embryo abortion
same,effect on haploid induction rate / number of haploids in haploid inducer crosses (in words),maize [2],boosted the haploid induction rate; also recorded: increase the number of haploids formed and/or the rate of haploid formation
same,increase in haploid induction rate compared to control buffer,maize [2],2.4%
same,increase in haploids recovered per ear compared to control buffer,maize [2],over 8 haploids per ear
same,increase in number of kernels per ear compared to control buffer,maize [2],over 43 per ear
"CCCCCCCCCCCCCCCCCC(=O)OC[C@H](COP(=O)([O-])OCC[N+](C)(C)C)OC(=O)CCCCCCCCCCCCCCCCC [DSPC, 1,2-distearoyl-sn-glycero-3-phosphatidyl choline]",de novo haploid formation (in words),maize [1],achieved de novo haploid formation
same,de novo haploid induction (in words),maize [1],triggered de novo haploid induction; also recorded: highly active
"CCCCC/C=C\C/C=C\C/C=C\C/C=C\CCCC(=O)OC [AAME, arachidonic acid methyl ester]",de novo haploid induction (in words),maize [1],triggered de novo haploid induction
"CCCCCCCCCCCCCCCC(=O)OCC [PAEE, palmitic acid ethyl ester]",de novo haploid induction (in words),maize [1],induces haploids
CCCCC/C=C\C/C=C\C/C=C\C/C=C\CCCC(=O)O [arachidonic acid],de novo haploid induction (in words),maize [1],triggered
"CC1=C(CC/C(C)=C/CCC2=CC[C@H](C3=CC(=O)O[C@H]3O)O[C@H]2O)C(C)(C)CCC1 [manoalide, reference compound]",de novo haploid induction (in words),maize [1],triggered de novo haploid induction; also recorded: able to induce haploid formation de novo
